Results from ChEMBL document CHEMBL1201862, “PubChem BioAssay data set” (2004).
Active and inactive are the calls of the source.

Assays:
Trypsin = Trypsin (Sus scrofa, UniProt P00761); assay: porcine trypsin inhibitors, dose response, selectivity assay for Rce1 protease inhibitor project, biochemical, quenched peptide fluorescence, cherry-pick (AID 488789)
CAAX prenyl protease 2 = CAAX prenyl protease 2 (Homo sapiens, UniProt Q9Y256); assay: human Rce1 protease inhibitors, dose response, biochemical, yeast membranes, quenched-peptide fluorescence, cherry-pick (AID 588849)
[1] = molecular target: UDP-galactopyranose mutase (Mycobacterium tuberculosis, UniProt P9WIQ1); assay: Inhibitors of Mycobacterium tuberculosis UDP-galactopyranose mutase (UGM) enzyme Measured in Biochemical System Using Plate Reader - 2105-02_Inhibitor_Dose_CherryPick_Activity. [Related pubchem assays (depositor defined):AID504439]
[2] = molecular target: DNA dC->dU-editing enzyme APOBEC-3A (Homo sapiens, UniProt P31941); assay: APOBEC3A DNA deaminase inhibitors, dose response, biochemical (AID 504722); type: functional
[3] = molecular target: T1, Voltage-gated N-type calcium channel alpha-1B subunit/Amyloid beta A4 precursor protein-binding family A member 1 (Homo sapiens, UniProt Q00975+Q02410); type: protein assay
[4] = molecular target: T2, Apoptotic protease-activating factor 1 (Homo sapiens, UniProt O14727); assay: activation of Apaf-1 mediated apoptosis – fluorescent, uHTS hits, dose response (AID 588554); type: functional
T2 sequence (O14727 whole entry): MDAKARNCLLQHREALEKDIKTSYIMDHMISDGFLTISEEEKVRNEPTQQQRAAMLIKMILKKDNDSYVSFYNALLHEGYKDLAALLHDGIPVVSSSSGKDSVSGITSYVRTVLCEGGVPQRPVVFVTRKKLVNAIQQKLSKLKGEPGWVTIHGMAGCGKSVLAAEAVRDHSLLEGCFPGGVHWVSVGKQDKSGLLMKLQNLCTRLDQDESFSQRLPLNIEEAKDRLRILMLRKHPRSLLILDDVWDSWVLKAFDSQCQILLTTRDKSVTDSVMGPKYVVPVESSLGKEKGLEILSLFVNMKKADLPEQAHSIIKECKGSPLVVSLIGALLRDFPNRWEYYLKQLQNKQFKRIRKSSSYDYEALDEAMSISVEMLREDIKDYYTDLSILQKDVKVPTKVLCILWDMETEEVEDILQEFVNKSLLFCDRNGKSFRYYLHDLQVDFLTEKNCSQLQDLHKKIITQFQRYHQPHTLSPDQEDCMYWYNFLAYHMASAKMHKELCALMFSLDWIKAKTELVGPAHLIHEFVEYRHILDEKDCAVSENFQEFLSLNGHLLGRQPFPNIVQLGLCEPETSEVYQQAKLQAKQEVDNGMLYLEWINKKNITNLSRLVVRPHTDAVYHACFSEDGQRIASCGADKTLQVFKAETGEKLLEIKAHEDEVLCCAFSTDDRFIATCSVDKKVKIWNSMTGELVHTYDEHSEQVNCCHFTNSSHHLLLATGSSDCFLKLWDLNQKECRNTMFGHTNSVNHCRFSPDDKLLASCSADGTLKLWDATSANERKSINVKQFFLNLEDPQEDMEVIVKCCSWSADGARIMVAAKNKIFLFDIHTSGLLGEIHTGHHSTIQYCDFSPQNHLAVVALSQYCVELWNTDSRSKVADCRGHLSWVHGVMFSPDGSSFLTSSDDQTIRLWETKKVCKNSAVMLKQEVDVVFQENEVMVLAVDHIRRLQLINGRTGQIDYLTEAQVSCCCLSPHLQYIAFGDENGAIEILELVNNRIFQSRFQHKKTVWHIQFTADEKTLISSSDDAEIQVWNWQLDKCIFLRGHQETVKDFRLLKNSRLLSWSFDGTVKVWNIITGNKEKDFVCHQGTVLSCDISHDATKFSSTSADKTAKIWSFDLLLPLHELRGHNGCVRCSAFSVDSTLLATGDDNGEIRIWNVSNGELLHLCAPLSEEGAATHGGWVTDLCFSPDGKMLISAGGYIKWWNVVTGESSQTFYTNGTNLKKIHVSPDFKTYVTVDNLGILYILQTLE

[5] = molecular target: Beta-adrenergic receptor kinase 1 (Homo sapiens, UniProt P25098); assay: aptamer displacement from bead-bound GRK2 – biochemical, cherry pick 1, bead flow cytometry, dose response (AID 504500)
[6] = molecular target: T3, Carboxy-terminal domain RNA polymerase II polypeptide A small phosphatase 1 (Homo sapiens, UniProt Q9GZU7); assay: inhibitors of CTDSP1, concentration-response testing, biochemical assay, absorbance-based, actives from ultra-high-throughput screening (AID 540297); type: functional
T3 sequence (Q9GZU7 whole entry): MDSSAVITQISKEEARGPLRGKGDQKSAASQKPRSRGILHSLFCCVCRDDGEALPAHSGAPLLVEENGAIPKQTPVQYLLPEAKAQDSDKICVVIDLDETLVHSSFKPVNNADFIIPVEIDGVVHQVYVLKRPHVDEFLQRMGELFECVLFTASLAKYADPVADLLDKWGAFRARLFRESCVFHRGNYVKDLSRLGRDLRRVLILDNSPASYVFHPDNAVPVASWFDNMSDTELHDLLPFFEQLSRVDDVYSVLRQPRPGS

[7] = molecular target: DNA dC->dU-editing enzyme APOBEC-3G (Homo sapiens, UniProt Q9HC16); assay: Dose Response confirmation of small molecule APOBEC3G DNA Deaminase Inhibitors via a fluorescence-based single-stranded DNA deaminase assay. [Related pubchem assays (depositor defined):AID493012, AID493028]; type: functional
[8] = molecular target: T1, Voltage-gated N-type calcium channel alpha-1B subunit/Amyloid beta A4 precursor protein-binding family A member 1; type: protein assay; remark: listed apart in the source
[9] = CFTR ΔF508 corrector activity in bronchial cells, dose response, human bronchial epithelial cells, plate reader, cherry-pick, two tests (AID 743267); type: functional, cell-based
Vero = Vero cell cytotoxicity, cytotoxicity control for flavivirus capping enzyme inhibitors (AID 588742); type: functional; conditions: Chlorocebus sabaeus
Albumin = Albumin (Bos taurus, UniProt P02769); assay: Counterscreen for inhibitors of T-cell receptor (TCR)-CD3 interaction: Fluorescence-based biochemical high throughput dose response assay to identify inhibitors of T-cell receptor (TCR)-CD3 interaction using a TAMRA-labeled BSA probe.; type: functional
Genome polyprotein = Genome polyprotein (dengue virus type 2, UniProt P29990); assay: Dengue-2 NS5 methyltransferase inhibitors, primary screen, biochemical, confirmation dose response (AID 588689); type: functional
[10] = molecular target: Glucose-6-phosphate 1-dehydrogenase (Homo sapiens, UniProt P11413); assay: human G6PD enzyme inhibitors, dose response, selectivity assay for P. falciparum G6PD inhibitor project, biochemical, fluorescence (AID 504792); type: functional
[11] = molecular target: T4, Tyrosyl-DNA phosphodiesterase 2 (Homo sapiens, UniProt O95551); assay: human TDP2 enzyme inhibitors, dose response, biochemical, epi absorbance, IC50 (AID 743297)
T4 sequence (O95551 whole entry): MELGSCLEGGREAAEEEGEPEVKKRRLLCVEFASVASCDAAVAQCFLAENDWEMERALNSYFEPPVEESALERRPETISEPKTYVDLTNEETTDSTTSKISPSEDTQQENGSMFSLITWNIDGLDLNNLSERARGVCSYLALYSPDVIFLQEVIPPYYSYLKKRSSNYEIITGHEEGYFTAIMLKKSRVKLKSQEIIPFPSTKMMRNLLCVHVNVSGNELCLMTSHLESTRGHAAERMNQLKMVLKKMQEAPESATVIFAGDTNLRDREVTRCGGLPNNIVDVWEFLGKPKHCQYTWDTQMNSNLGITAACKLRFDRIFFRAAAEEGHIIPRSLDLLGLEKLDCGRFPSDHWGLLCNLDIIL

Candida albicans [12] = assay: growth inhibition of azole-resistant C. albicans, dose response, CaCi-8 strain, Alamar Blue, dry powder, set 2 (AID 488909); type: functional, organism-based
Candida albicans [13] = assay: growth inhibition of resistant C. albicans, dose response, CaCi-8 strain, fluconazole, dry powder, set 4 (AID 488950); type: functional, organism-based
Jurkat = assay: SAR Analysis of small molecule inhibitors of […] specific antigen receptor-induced NF-kB activation in a Jurkat cell line using a luminescence assay - Set 3. [Related pubchem assays (depositor defined):AID435022, AID435025, AID465]; type: functional, cell-based; conditions: Homo sapiens
HEK293 [14] = assay: cytotoxicity in HEK293T NF-kB-Luc cells, SAR follow-up, cytotoxicity control for NF-kB activator project, cell-based, resazurin fluorescence (AID 493251); type: functional; conditions: Homo sapiens
HEK293 [15] = assay: SAR Analysis of small molecule inhibitors of B-cell specific antigen receptor-induced NF-kB activation in a HEK-293T cell line using a luminescence assay - Set 2. [Related pubchem assays (depositor defined):AID435022, AID435025, AID489021]; type: functional, cell-based; conditions: Homo sapiens

T1 sequence (Q00975 whole entry): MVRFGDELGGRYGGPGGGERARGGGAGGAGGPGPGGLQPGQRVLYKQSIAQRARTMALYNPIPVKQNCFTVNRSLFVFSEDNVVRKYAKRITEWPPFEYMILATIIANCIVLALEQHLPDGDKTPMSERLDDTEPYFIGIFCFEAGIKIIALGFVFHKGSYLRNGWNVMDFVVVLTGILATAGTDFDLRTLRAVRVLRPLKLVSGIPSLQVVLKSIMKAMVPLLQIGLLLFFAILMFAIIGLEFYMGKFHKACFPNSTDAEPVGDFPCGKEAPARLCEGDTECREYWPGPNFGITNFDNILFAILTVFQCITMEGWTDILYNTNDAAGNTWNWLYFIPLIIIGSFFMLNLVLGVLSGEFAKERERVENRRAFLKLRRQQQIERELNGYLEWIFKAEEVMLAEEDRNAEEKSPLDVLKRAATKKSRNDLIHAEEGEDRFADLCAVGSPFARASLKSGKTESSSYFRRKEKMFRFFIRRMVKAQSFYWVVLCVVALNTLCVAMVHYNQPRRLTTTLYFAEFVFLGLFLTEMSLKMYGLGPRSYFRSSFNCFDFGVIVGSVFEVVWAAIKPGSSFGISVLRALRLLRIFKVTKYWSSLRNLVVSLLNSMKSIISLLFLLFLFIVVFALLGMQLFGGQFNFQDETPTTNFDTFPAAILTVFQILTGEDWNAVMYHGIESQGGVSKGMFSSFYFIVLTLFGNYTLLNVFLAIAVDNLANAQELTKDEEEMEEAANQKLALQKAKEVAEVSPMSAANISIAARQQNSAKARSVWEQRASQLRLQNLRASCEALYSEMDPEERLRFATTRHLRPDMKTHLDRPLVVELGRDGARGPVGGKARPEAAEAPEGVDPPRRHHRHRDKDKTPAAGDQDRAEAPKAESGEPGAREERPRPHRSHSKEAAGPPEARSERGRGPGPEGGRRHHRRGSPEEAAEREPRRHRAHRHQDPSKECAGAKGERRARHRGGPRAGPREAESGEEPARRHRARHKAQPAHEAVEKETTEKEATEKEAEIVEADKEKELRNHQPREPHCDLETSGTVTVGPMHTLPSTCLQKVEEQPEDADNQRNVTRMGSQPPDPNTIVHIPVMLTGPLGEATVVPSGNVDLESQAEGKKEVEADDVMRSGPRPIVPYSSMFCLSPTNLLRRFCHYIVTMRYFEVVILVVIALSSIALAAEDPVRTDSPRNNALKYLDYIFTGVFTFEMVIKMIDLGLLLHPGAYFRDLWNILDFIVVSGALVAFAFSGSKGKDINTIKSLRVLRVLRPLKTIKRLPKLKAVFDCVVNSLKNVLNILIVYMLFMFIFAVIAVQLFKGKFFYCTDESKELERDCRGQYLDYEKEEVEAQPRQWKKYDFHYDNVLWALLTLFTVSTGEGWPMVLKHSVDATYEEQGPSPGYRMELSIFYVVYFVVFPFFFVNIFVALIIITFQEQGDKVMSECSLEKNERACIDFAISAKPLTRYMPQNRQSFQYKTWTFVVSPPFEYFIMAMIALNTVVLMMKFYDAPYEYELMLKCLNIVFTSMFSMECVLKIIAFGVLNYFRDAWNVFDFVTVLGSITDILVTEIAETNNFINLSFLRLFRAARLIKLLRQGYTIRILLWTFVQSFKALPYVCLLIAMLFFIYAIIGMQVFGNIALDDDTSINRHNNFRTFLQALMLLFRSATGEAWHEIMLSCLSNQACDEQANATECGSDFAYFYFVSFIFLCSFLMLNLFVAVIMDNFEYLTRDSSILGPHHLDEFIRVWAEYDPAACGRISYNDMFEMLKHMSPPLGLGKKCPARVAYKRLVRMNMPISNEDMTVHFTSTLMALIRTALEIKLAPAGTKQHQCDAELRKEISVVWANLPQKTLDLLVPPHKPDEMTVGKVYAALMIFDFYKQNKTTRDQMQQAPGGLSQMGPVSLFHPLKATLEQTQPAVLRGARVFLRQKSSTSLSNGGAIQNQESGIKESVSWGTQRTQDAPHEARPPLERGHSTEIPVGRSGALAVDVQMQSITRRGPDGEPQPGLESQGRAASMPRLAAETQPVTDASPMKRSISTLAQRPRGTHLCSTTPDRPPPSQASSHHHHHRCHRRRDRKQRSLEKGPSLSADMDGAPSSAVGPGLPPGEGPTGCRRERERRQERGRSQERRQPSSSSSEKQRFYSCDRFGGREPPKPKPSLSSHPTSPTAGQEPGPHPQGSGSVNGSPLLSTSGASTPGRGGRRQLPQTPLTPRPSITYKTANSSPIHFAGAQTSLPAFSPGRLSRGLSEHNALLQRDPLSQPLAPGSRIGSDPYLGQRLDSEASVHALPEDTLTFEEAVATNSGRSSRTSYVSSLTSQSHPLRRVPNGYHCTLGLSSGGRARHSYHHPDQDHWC
T1 sequence (Q02410 whole entry): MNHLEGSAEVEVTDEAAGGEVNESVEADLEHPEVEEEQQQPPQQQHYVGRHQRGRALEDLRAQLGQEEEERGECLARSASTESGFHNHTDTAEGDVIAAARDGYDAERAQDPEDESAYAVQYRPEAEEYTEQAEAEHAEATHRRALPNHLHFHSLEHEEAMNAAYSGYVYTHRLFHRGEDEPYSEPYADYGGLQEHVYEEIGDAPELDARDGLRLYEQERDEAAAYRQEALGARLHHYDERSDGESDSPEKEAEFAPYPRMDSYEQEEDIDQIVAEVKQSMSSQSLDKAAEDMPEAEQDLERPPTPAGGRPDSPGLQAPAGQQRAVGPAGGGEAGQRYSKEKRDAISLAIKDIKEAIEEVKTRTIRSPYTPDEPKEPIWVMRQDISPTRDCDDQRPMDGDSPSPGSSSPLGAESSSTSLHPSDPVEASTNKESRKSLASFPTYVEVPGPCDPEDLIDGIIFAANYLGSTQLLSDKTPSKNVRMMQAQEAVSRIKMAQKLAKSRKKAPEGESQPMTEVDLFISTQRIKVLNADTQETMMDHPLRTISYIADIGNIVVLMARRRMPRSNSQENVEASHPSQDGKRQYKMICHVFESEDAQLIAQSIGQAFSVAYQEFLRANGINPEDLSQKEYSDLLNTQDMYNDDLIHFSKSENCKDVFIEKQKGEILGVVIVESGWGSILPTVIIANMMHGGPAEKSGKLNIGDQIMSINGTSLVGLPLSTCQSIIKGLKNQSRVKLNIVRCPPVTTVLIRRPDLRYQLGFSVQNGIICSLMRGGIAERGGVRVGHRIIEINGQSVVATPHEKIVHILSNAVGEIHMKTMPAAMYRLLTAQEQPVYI
Chain of DNA dC->dU-editing enzyme APOBEC-3A (P31941 whole entry): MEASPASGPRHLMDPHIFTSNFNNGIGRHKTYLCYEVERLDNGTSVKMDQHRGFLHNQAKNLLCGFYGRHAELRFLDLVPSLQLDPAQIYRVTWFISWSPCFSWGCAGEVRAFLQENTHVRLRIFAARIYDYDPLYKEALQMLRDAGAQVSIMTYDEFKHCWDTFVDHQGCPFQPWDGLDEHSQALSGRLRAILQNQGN
Chain of CAAX prenyl protease 2 (Q9Y256 whole entry): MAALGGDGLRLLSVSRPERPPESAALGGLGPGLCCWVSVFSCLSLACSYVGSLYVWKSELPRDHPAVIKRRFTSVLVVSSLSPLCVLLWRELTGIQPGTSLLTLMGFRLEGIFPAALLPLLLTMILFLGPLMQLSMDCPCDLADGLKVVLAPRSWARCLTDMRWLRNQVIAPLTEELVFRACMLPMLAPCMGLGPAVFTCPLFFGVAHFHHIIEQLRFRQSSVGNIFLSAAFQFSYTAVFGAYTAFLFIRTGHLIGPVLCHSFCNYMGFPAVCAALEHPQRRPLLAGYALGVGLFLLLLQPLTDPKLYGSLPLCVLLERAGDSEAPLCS
Chain of Glucose-6-phosphate 1-dehydrogenase (P11413 whole entry): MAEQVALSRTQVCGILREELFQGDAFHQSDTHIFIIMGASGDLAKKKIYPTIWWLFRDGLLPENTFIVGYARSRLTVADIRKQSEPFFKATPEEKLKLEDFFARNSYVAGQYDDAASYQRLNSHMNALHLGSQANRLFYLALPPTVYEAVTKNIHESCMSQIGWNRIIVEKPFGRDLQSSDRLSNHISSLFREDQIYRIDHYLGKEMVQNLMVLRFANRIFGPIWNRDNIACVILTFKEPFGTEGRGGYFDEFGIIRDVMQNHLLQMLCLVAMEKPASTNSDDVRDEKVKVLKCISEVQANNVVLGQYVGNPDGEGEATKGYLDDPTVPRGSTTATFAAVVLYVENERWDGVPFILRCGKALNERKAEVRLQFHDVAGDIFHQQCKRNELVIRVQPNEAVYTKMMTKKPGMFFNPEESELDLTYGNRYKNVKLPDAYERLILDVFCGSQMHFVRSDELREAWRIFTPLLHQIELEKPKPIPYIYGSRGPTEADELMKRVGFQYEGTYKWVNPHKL
Chain of Albumin (P02769 whole entry): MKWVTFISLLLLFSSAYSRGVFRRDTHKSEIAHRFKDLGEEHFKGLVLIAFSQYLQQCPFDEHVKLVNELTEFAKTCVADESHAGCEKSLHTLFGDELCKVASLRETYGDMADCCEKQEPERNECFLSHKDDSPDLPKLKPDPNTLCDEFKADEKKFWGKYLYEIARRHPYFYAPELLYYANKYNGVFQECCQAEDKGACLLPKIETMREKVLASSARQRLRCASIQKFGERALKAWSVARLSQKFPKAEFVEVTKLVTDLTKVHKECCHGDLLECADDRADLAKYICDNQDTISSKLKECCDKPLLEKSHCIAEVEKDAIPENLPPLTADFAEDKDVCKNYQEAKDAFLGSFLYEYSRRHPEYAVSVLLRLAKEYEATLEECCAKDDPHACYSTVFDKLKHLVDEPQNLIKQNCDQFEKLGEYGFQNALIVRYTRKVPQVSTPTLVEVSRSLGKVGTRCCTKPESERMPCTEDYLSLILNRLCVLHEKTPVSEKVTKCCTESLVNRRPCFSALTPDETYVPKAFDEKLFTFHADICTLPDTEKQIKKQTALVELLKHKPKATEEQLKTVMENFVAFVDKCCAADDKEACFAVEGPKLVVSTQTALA
Chain of Trypsin (P00761 whole entry): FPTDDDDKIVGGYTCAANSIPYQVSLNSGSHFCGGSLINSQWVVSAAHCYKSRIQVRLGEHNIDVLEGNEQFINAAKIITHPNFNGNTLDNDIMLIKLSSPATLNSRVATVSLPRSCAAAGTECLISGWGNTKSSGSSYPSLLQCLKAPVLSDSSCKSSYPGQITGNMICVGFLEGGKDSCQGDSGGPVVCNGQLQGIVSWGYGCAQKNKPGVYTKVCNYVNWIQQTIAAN

With `Cc1ccnc(SCc2cn3c(C)cc(C)nc3n2)n1` the AC50 (Trypsin) was 20.2 µM (active) and the AC50 (CAAX prenyl protease 2) was > 100 µM (inactive).

With `O=C1NC(c2cccs2)Nc2sc3c(c21)CCCC3` (stereo unspecified) the AC50 [1] was 129 µM (active).

For `C=C(C)C(=O)Nc1cccc(C2=NOC3(C2)C[C@@H](C(N)=O)N(C(=O)CCCCC)C3)c1` (stereo partly specified), the IC50 [2] was > 100 µM (inactive), the IC50 [3] was > 50 µM (inactive) and the EC50 [4] was 2.96 µM (active). For the same compound, the EC50 [5] was 0.11 µM (active), the IC50 [6] was 0.9 µM (active) and the IC50 [7] was 2.82 µM (active). For the same compound, the IC50 [8] was 10.2 µM (active).

For `O=C1C(=NCCc2cc(Br)c(O)c(Br)c2)C=C(O)c2cccnc21`, the AC50 [9] was 3.33 µM (active), the CC50 (Vero) was 2.03 µM (active) and the IC50 (Albumin) was > 94.2 µM (inactive). For the same compound, the IC50 (Genome polyprotein) was 12.2 µM (active), the IC50 [10] was 25.2 µM (inactive) and the IC50 [11] was 5.04 µM (active).

In the case of `CCCC(=O)N1CCN(c2ccnc3cc(Cl)ccc23)CC1`, the AC50 (Candida albicans [12]) was 5.59 µM (active) and the AC50 (Candida albicans [13]) was 16.9 µM (active).

With `CCOc1ccc(-c2nc(CSCC(=O)NC3CCCC3)c(C)o2)cc1` the IC50 (Jurkat) was 37.6 µM (inactive), the IC50 (HEK293 [14]) was 64.2 µM (inactive) and the IC50 (HEK293 [15]) was 26.4 µM (inactive).
